According to US6376670B1, “Quinoline-indole antimicrobial agents, uses and compositions related thereto” (Sepracor Inc., priority 1997, dated 2002):
Where two headings read alike, the source gives them in different places.

Legend:
Test in all cases: Determination of MIC values (BHI broth, 96 well microtiter plate)
Format in all cases: cell-based
[1] = system: vancomycin-resistant Enterococcus spp. (VRE); conditions: Enterococcus, VRE, BHI broth, read-out: MIC VREF
Outline: (§1)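 Here, each test series spans final concentrations of 25 to 0.39 µg/mL in BHI broth, with DMSO as diluent. Plates seeded at 10^5–10^6 cells/mL are kept at 37° C and approx. 7-10% CO2 for about 16 hours before growth is scored.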

[2] = system: methicillin-resistant Staphylococcus aureus (MRSA); conditions: Staphylococcus aureus, MRSA, BHI broth, read-out: MIC MRSA
Outline: as §1

[3] = system: Streptococcus pneumoniae; conditions: Streptococcus pneumoniae, BHI broth, read-out: MIC S. pneu
Outline: as §1

[4] = 16 h, 37° C., overnight (about 16 hours)
[5] = 37° C., overnight (about 16 hours)

In the case of `Cn1cc(-c2cc(C(=O)NCC3CCC(CN)CC3)c3ccc(F)cc3n2)c2cc(Br)ccc21` (stereo not drawn) [Example 326], the MIC ([1]; VREF, overnight 37° C.) is reported as < 7 µg/mL, the MIC ([2]; overnight 37° C.) is reported as < 7 µg/mL and the MIC ([3]; S. pneu, overnight 37° C.) is reported as < 7 µg/mL.

With `NCC1CCC(CNC(=O)c2cc(-c3c[nH]c4ccc(Cl)cc34)nc3ccc(I)cc23)CC1` (stereo not drawn) [Example 226] the MIC ([1]; VREF, overnight 37° C.) was < 25 µg/mL, the MIC ([2]; overnight 37° C.) was < 25 µg/mL and the MIC ([3]; S. pneu, overnight 37° C.) was < 7 µg/mL.

`NCCNC(=O)c1cc(-c2c[nH]c3ccc(Br)cc23)nc2cc(Cl)cc(Cl)c12` [Example 295] was tested, and the MIC ([1]; VREF, overnight 37° C.) was < 7 µg/mL, the MIC ([2]; overnight 37° C.) was < 7 µg/mL and the MIC ([3]; S. pneu, overnight 37° C.) was < 7 µg/mL.

With `CN(C)CCNCC#Cc1ccc2nc(-c3cn(C)c4ccc(Br)cc34)cc(C(=O)NCCN)c2c1` [Example 402] the MIC ([1]; 16 h, 37° C., about 16 hours) was < 7 µg/mL, the MIC ([2]; 16 h, 37° C., about 16 hours) was < 7 µg/mL and the MIC ([3]; 37° C., about 16 hours) was < 7 µg/mL.

For `NCC1CCC(CNC(=O)c2cc(-c3c[nH]c4ccc(Br)cc34)nc3c(F)cccc23)CC1` (stereo not drawn) [Example 258], the MIC ([1]; VREF, overnight 37° C.) was < 7 µg/mL, the MIC ([2]; overnight 37° C.) was < 7 µg/mL and the MIC ([3]; S. pneu, overnight 37° C.) was < 7 µg/mL.

`Clc1cc(-c2c[nH]c3ccc(Br)cc23)nc2ccccc12` [Example 345] was tested, and the MIC ([1]; VREF, overnight 37° C.) was > 25 µg/mL, the MIC ([2]; overnight 37° C.) was < 7 µg/mL and the MIC ([3]; S. pneu, overnight 37° C.) was < 7 µg/mL.

`NCc1ccc(CNC(=O)c2cc(-c3c[nH]c4ccc(Br)cc34)nc3cc(Br)ccc23)cc1` [Example 138] was tested, and the MIC [1, 4] was < 7 µg/mL, the MIC [2, 4] was < 7 µg/mL and the MIC [3, 5] was < 7 µg/mL.

For `Cn1cc(-c2cc(C(=O)NCCN)c3cc(Cl)ccc3n2)c2cc(Br)ccc21` [Example 370], the MIC ([1]; VREF, overnight 37° C.) was < 7 µg/mL, the MIC ([2]; overnight 37° C.) was < 7 µg/mL and the MIC ([3]; S. pneu, overnight 37° C.) was < 7 µg/mL.

`NCCNC(=O)c1cc(-c2c[nH]c3ccc(Br)cc23)nc2ccc(C#CCNCCc3ccccc3)cc12` [Example 527] was tested, and the MIC ([1]; 16 h, 37° C., about 16 hours) was < 7 µg/mL, the MIC ([2]; 16 h, 37° C., about 16 hours) was < 7 µg/mL and the MIC ([3]; 37° C., about 16 hours) was < 7 µg/mL.

With `Cc1ccc2nc(-c3c[nH]c4ccc(Br)cc34)ccc2c1` [Example 432] the MIC ([1]; 16 h, 37° C., about 16 hours) was > 25 µg/mL, the MIC ([2]; 16 h, 37° C., about 16 hours) was < 7 µg/mL and the MIC ([3]; 37° C., about 16 hours) was < 7 µg/mL.

With `O=[N+]([O-])c1ccc2[nH]cc(-c3cc(Cl)c4ccccc4n3)c2c1` [Example 349] the MIC ([1]; VREF, overnight 37° C.) was > 25 µg/mL, the MIC ([2]; overnight 37° C.) was > 25 µg/mL and the MIC ([3]; S. pneu, overnight 37° C.) was > 25 µg/mL.

For `COc1ccc2[nH]c(C)c(-c3ccc4cc(C)ccc4n3)c2c1` [Example 434], the MIC ([1]; 16 h, 37° C., about 16 hours) was > 25 µg/mL, the MIC ([2]; 16 h, 37° C., about 16 hours) was > 25 µg/mL and the MIC ([3]; 37° C., about 16 hours) was > 25 µg/mL.

In the case of `OCc1cc(-c2c[nH]c3ccc(Br)cc23)nc2c(F)cccc12` [Example 444], the MIC ([1]; 16 h, 37° C., about 16 hours) is reported as < 25 µg/mL, the MIC ([2]; 16 h, 37° C., about 16 hours) is reported as < 7 µg/mL and the MIC ([3]; 37° C., about 16 hours) is reported as < 7 µg/mL.

For `NCc1ccc(CNC(=O)c2cc(-c3c[nH]c4ccc(Br)cc34)nc3c(Br)cccc23)cc1` [Example 139], the MIC [1, 4] was < 7 µg/mL, the MIC [2, 4] was < 7 µg/mL and the MIC [3, 5] was < 7 µg/mL.

`Cc1ccc2nc(-c3c[nH]c4ccc(Br)cc34)cc(C(=O)NCc3ccc(CN)cc3)c2c1` [Example 104] was tested, and the MIC [1, 4] was < 7 µg/mL, the MIC [2, 4] was < 7 µg/mL and the MIC [3, 5] was < 7 µg/mL.

`Brc1ccc2[nH]cc(-c3ccc4cc(I)ccc4n3)c2c1` [Example 363] was tested, and the MIC ([1]; VREF, overnight 37° C.) was < 7 µg/mL, the MIC ([2]; overnight 37° C.) was < 7 µg/mL and the MIC ([3]; S. pneu, overnight 37° C.) was < 7 µg/mL.

In the case of `CN(C)CCN(C)C(=O)c1cc(-c2c[nH]c3ccc(Br)cc23)nc2cc(Cl)ccc12` [Example 505], the MIC ([1]; 16 h, 37° C., about 16 hours) is reported as < 7 µg/mL, the MIC ([2]; 16 h, 37° C., about 16 hours) is reported as < 7 µg/mL and the MIC ([3]; 37° C., about 16 hours) is reported as < 7 µg/mL.

With `NCc1ccc(CNC(=O)c2cc(-c3c[nH]c4ccc(Br)cc34)nc3cc(C#CCNCCc4ccc(Cl)cc4)ccc23)cc1` [Example 300] the MIC ([1]; VREF, overnight 37° C.) was < 7 µg/mL, the MIC ([2]; overnight 37° C.) was < 7 µg/mL and the MIC ([3]; S. pneu, overnight 37° C.) was < 25 µg/mL.

In the case of `OCc1cc(-c2c[nH]c3ccc(Br)cc23)nc2c(I)cccc12` [Example 454], the MIC ([1]; 16 h, 37° C., about 16 hours) is reported as < 7 µg/mL, the MIC ([2]; 16 h, 37° C., about 16 hours) is reported as < 7 µg/mL and the MIC ([3]; 37° C., about 16 hours) is reported as < 7 µg/mL.

`NCc1cccc(CNC(=O)c2cc(-c3c[nH]c4cc(F)ccc34)nc3cc(F)ccc23)c1` [Example 494] was tested, and the MIC ([1]; 16 h, 37° C., about 16 hours) was < 7 µg/mL, the MIC ([2]; 16 h, 37° C., about 16 hours) was < 7 µg/mL and the MIC ([3]; 37° C., about 16 hours) was < 7 µg/mL.

`NCc1ccc(CNC(=O)c2cc(-c3c[nH]c4ccc(Br)cc34)nc3ccc(C#CCN4CC=CCC4)cc23)cc1` [Example 241] was tested, and the MIC ([1]; VREF, overnight 37° C.) was < 7 µg/mL, the MIC ([2]; overnight 37° C.) was < 7 µg/mL and the MIC ([3]; S. pneu, overnight 37° C.) was < 7 µg/mL.

`Fc1ccc2[nH]cc(-c3ccc4cc(Cl)ccc4n3)c2c1` [Example 191] was tested, and the MIC [1, 4] was < 25 µg/mL, the MIC [2, 4] was < 7 µg/mL and the MIC [3, 5] was < 7 µg/mL.

In the case of `CNCCN(C)C(=O)c1cc(-c2c[nH]c3ccc(Br)cc23)nc2cc(Cl)ccc12` [Example 501], the MIC ([1]; 16 h, 37° C., about 16 hours) is reported as < 7 µg/mL, the MIC ([2]; 16 h, 37° C., about 16 hours) is reported as < 7 µg/mL and the MIC ([3]; 37° C., about 16 hours) is reported as < 7 µg/mL.

With `NCc1ccc(CNC(=O)c2cc(-c3c[nH]c4ccc(Br)cc34)nc3c(C#CCN4CCCCC4)cccc23)cc1` [Example 263] the MIC ([1]; VREF, overnight 37° C.) was < 25 µg/mL, the MIC ([2]; overnight 37° C.) was < 25 µg/mL and the MIC ([3]; S. pneu, overnight 37° C.) was < 7 µg/mL.

`COC(=O)c1cc(-c2cn(C)c3ccc(Br)cc23)nc2cc(F)ccc12` [Example 309] was tested, and the MIC ([1]; VREF, overnight 37° C.) was > 25 µg/mL, the MIC ([2]; overnight 37° C.) was > 25 µg/mL and the MIC ([3]; S. pneu, overnight 37° C.) was > 25 µg/mL.

`NCc1ccc(CNC(=O)c2cc(-c3c[nH]c4ccc(Br)cc34)nc3ccc(I)cc23)cc1` [compound 53] was tested, and the MIC [1, 4] was < 7 µg/mL, the MIC [2, 4] was < 7 µg/mL and the MIC [3, 5] was < 7 µg/mL.
